Key:
[1] = biological target: 5-hydroxytryptamine receptor 2B (Homo sapiens, UniProt P41595); format: functional, cell-based
Histamine H2 receptor = Histamine H2 receptor (Homo sapiens, UniProt P25021); format: functional, cell-based
B2 bradykinin receptor = biological target: T1, B2 bradykinin receptor (Homo sapiens, UniProt P30411)
T1 sequence (P30411 whole entry): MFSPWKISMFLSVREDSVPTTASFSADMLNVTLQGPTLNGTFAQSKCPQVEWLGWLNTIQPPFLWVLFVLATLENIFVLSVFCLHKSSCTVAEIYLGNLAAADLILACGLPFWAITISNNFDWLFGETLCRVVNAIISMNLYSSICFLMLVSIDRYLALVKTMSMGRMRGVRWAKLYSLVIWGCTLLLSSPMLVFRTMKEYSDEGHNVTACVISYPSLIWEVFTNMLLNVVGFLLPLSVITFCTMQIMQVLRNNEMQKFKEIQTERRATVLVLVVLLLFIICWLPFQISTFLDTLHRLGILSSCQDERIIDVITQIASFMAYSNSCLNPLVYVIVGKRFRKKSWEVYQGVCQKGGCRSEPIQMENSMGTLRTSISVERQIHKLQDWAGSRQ

[2] = biological target: T2, Alpha-2A adrenergic receptor (Homo sapiens, UniProt P08913); format: functional, cell-based
T2 sequence (P08913 whole entry): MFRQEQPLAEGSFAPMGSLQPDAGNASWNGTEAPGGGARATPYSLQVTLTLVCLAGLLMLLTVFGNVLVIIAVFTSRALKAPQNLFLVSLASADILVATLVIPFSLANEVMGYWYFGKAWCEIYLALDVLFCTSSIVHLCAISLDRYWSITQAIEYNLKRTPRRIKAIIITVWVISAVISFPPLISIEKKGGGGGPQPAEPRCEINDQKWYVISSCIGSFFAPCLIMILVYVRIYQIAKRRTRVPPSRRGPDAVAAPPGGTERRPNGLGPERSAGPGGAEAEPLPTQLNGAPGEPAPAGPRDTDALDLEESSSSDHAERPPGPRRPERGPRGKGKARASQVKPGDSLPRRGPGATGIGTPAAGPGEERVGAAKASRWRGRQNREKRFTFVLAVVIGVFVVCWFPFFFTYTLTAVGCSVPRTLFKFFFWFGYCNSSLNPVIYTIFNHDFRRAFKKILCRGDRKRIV

D(1A) dopamine receptor = D(1A) dopamine receptor (Homo sapiens, UniProt P21728); format: functional, cell-based
Chain of D(1A) dopamine receptor (P21728 whole entry): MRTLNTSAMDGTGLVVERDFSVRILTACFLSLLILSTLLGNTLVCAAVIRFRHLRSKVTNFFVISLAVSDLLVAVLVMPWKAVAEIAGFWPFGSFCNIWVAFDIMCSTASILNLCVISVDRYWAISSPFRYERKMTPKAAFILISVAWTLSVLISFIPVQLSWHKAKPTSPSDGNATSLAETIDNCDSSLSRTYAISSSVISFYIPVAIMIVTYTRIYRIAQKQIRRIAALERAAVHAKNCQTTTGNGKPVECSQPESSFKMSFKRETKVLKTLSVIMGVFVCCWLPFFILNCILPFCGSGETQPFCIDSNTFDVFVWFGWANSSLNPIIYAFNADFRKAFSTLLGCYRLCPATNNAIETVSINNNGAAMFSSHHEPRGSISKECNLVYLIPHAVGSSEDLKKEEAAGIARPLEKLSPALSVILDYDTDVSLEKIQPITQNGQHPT

[3] = biological target: Voltage-gated inwardly rectifying potassium channel KCNH2 (Homo sapiens, UniProt Q12809); format: functional; conditions: read-out: AC50
Chain of Voltage-gated inwardly rectifying potassium channel KCNH2 (Q12809 whole entry): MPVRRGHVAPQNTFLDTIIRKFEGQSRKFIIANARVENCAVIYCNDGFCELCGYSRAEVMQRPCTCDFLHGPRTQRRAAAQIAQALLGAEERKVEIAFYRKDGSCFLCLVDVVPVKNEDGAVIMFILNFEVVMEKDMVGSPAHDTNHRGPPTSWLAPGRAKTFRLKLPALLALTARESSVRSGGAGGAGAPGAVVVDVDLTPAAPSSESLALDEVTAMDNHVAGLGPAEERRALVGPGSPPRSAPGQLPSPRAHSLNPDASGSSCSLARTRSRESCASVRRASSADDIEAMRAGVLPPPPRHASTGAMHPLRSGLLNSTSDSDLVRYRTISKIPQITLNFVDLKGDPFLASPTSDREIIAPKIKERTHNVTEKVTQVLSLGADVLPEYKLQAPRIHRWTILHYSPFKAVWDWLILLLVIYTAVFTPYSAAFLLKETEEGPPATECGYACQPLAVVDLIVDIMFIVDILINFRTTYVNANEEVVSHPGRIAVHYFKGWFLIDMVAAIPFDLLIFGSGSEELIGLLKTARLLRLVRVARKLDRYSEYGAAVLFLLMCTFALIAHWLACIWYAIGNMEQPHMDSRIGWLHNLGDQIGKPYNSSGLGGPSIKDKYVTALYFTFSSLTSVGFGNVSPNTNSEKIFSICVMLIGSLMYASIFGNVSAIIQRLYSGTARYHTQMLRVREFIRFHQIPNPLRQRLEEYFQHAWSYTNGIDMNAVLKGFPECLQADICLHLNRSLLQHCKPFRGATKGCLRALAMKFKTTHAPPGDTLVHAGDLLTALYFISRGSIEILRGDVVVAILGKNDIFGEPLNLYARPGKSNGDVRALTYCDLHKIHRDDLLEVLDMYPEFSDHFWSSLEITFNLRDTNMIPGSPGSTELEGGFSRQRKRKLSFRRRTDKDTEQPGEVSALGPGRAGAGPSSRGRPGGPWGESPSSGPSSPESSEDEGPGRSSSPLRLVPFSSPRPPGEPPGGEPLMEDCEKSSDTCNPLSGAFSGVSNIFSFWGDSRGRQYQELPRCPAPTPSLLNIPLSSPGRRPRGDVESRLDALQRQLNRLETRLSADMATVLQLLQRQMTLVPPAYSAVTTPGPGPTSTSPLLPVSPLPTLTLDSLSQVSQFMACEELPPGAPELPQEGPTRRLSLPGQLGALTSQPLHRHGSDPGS

[4] = biological target: T3, Cholecystokinin receptor type A (Homo sapiens, UniProt P32238)
T3 sequence (P32238 whole entry): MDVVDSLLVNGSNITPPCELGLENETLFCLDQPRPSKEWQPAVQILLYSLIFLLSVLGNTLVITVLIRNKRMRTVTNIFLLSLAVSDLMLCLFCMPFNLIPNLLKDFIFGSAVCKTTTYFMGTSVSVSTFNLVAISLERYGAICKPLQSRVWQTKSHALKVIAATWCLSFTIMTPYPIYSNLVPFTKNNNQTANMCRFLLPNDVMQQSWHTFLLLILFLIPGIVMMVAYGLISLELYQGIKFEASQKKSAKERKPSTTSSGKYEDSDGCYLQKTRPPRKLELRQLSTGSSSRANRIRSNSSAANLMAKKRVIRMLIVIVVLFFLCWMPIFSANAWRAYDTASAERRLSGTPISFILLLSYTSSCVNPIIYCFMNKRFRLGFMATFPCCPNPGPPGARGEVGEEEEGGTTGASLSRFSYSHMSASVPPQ

[5] = biological target: Muscarinic acetylcholine receptor M3 (Homo sapiens, UniProt P20309)
Chain of Muscarinic acetylcholine receptor M3 (P20309 whole entry): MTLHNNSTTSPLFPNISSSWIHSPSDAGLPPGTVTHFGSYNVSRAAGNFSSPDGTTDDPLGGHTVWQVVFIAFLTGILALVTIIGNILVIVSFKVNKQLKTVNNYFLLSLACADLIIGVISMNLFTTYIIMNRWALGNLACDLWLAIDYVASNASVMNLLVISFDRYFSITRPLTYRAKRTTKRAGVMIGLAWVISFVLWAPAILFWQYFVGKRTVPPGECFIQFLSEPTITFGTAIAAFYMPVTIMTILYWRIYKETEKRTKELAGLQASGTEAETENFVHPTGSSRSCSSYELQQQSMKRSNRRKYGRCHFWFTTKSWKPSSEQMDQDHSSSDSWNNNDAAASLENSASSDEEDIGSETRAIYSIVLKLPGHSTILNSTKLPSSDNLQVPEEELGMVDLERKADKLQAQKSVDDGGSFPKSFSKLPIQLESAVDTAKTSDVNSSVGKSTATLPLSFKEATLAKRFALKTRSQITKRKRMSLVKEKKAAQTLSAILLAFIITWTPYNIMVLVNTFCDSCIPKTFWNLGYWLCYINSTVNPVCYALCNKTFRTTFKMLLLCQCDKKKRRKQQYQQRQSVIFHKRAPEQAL

Melanocortin receptor 3 = Melanocortin receptor 3 (Homo sapiens, UniProt P41968)
Chain of Melanocortin receptor 3 (P41968 whole entry): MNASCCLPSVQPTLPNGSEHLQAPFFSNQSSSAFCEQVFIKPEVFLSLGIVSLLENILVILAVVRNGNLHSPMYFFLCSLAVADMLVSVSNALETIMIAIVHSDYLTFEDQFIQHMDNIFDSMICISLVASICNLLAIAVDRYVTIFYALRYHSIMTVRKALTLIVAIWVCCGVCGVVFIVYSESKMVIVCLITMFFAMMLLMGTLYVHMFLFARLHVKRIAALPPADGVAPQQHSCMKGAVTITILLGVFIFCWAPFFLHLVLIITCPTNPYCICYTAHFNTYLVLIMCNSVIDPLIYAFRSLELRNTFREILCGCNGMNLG

[6] = biological target: T4, Muscarinic acetylcholine receptor M2 (Homo sapiens, UniProt P08172); format: functional, cell-based
T4 sequence (P08172 whole entry): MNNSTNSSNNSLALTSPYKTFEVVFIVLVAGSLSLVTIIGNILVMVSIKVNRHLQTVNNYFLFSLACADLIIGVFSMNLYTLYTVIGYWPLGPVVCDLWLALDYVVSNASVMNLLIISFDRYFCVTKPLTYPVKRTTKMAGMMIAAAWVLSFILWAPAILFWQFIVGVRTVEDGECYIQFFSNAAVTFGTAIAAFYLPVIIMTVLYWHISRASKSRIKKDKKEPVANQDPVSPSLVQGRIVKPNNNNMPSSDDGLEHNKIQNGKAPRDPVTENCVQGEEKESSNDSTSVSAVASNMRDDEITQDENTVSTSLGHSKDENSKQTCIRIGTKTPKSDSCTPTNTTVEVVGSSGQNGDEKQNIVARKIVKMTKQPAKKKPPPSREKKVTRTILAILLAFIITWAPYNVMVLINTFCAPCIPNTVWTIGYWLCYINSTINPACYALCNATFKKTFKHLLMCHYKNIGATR

Vasopressin V2 receptor = Vasopressin V2 receptor (Homo sapiens, UniProt P30518)
Chain of Vasopressin V2 receptor (P30518 whole entry): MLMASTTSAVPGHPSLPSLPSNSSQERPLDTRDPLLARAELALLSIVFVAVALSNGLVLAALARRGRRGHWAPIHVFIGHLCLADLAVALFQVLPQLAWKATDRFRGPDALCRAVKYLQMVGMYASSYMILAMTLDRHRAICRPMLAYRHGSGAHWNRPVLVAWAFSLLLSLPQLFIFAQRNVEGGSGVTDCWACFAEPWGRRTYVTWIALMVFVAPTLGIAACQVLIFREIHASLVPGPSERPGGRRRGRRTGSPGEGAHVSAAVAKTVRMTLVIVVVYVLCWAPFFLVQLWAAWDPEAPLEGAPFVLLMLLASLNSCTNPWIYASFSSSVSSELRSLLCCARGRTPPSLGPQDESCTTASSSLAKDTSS

[7] = biological target: T5, Alpha-2C adrenergic receptor (Homo sapiens, UniProt P18825); format: functional
T5 sequence (P18825 whole entry): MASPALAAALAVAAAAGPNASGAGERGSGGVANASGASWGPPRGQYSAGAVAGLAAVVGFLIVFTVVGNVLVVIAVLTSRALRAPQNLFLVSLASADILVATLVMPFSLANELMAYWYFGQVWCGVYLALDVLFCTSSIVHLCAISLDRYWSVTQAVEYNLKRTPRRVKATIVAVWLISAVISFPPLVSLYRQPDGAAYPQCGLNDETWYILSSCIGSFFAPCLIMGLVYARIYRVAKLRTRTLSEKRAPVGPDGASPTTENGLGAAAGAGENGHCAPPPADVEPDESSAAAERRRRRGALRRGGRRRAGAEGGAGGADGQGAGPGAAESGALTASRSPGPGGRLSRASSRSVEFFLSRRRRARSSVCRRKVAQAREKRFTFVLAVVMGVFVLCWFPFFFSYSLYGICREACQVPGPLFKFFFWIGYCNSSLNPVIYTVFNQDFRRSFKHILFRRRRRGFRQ
Note: assay procedure not described here.

Chain of 5-hydroxytryptamine receptor 2B (P41595 whole entry): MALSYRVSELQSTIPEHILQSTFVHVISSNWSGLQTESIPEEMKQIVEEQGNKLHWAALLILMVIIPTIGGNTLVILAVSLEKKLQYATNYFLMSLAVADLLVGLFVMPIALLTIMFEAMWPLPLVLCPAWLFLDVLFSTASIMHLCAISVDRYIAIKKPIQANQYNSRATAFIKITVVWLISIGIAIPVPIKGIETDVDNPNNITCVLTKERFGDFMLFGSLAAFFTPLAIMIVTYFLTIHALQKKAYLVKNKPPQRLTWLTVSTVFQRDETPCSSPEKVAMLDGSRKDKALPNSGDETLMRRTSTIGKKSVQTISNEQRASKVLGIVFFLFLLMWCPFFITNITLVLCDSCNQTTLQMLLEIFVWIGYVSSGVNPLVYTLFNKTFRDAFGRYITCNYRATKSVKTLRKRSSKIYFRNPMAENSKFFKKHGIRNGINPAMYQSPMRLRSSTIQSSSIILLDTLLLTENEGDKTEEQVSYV
Chain of Histamine H2 receptor (P25021 whole entry): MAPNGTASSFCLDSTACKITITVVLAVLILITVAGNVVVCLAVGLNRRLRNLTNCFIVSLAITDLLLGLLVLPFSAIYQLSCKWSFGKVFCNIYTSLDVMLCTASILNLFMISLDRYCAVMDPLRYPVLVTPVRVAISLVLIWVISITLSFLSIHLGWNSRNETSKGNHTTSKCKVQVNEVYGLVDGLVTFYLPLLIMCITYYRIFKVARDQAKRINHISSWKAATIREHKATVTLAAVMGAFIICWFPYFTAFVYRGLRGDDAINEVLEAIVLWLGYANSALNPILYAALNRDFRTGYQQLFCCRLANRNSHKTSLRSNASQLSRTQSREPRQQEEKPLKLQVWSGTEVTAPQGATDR

Structure (SMILES)	AC50 [1] [µM]	AC50 (Histamine H2 receptor) [µM]	AC50 (B2 bradykinin receptor) [µM]	AC50 [2] [µM]	AC50 (D(1A) dopamine receptor) [µM]	AC50 [3] [µM]	AC50 [4] [µM]	AC50 [5] [µM]	AC50 (Melanocortin receptor 3) [µM]	AC50 [6] [µM]	AC50 (Vasopressin V2 receptor) [µM]	AC50 [7] [µM]
COc1ccccc1N1CCN(CCCNc2cc(=O)n(C)c(=O)n2C)CC1	20	> 30	> 30	11	> 30	> 30	> 30	> 30	> 30	> 30	> 30	–
CC(=O)O[C@H]1CC[C@@]2(C)C(=CC[C@@H]3[C@@H]2CC[C@]2(C)C(c4cccnc4)=CC[C@@H]32)C1 [ABIRATERONE ACETATE]	> 30	> 30	–	> 30	> 30	> 30	> 30	> 30	> 30	> 30	–	> 30
NCC(=O)CCC(=O)O [AMINOLEVULINIC ACID]	–	> 30	> 30	> 30	> 30	> 30	> 30	> 30	> 30	> 30	> 30	> 30
CC(C[N+](C)(C)C)OC(N)=O (stereo unspecified) [BETHANECHOL]	> 10	> 10	> 10	> 10	> 10	> 30	> 10	> 30	> 10	–	> 10	> 10
CCCCCCOc1ccccc1C(N)=O [EXALAMIDE]	1.1	> 30	> 30	> 30	> 30	> 30	> 30	> 30	> 30	–	> 30	> 30
CC(C)(C)c1cc(C(C)(C)C)c(NC(=O)c2c[nH]c3ccccc3c2=O)cc1O [IVACAFTOR]	> 10	> 10	> 30	> 10	–	> 30	> 30	> 30	> 30	–	> 30	> 10
CC(Oc1c(Cl)cccc1Cl)C1=NCCN1 (stereo unspecified) [LOFEXIDINE]	> 30	> 30	> 30	–	> 30	8.86	> 30	> 30	> 30	> 30	> 30	0.42
CN1C(=O)C(O)N=C(c2ccccc2Cl)c2cc(Cl)ccc21 (stereo unspecified) [LORMETAZEPAM]	> 30	> 30	> 30	–	> 30	> 30	> 30	> 30	> 30	–	> 30	> 30
Cc1cccc(C(C)c2cnc[nH]2)c1C (stereo unspecified) [MEDETOMIDINE]	> 30	> 30	> 30	–	> 30	17.8	> 30	> 30	> 30	> 10	> 30	1.3
N#Cc1ccc([C@H]2CCc3cncn32)c(F)c1 [OSILODROSTAT]	–	–	–	–	–	19.7	> 10	> 10	> 10	–	–	> 10
COc1ccc2c3c1O[C@H]1C(=O)CC[C@@]4(O)[C@@H](C2)N(C)CC[C@]314 [OXYCODONE]	> 30	> 30	> 30	> 30	> 30	> 30	> 30	> 30	> 30	> 30	> 30	–
Clc1ccc(CCCOCCCN2CCCCC2)cc1 [PITOLISANT]	> 30	> 30	> 30	–	> 30	1.7	> 30	> 30	> 30	15	> 30	6
CN1C(=O)C(O)N=C(c2ccccc2)c2cc(Cl)ccc21 (stereo unspecified) [TEMAZEPAM]	> 10	> 10	> 30	> 10	> 10	–	> 30	> 10	> 30	> 10	> 30	> 10
C/C(O)=C(\C#N)C(=O)Nc1ccc(C(F)(F)F)cc1 [TERIFLUNOMIDE]	> 30	–	–	> 30	> 30	> 30	> 30	> 30	> 30	> 30	–	> 30
CN1CCN(CC/C=C2/c3ccccc3Sc3ccc(S(=O)(=O)N(C)C)cc32)CC1 [THIOTHIXENE]	4.9	> 10	> 30	5.9	> 30	1.63	> 30	> 10	> 30	> 10	20	–
CN1C(=O)OC(C)(C)C1=O [TRIMETHADIONE]	> 10	> 10	> 10	> 10	> 10	> 30	> 10	–	> 10	> 10	> 10	> 10
CC(=O)O[C@H]1C[C@@H]2CC[C@@H]3[C@H](CC[C@@]4(C)[C@H]3C[C@H]([N+]3(C)CCCCC3)[C@@H]4OC(C)=O)[C@@]2(C)C[C@@H]1N1CCCCC1 [VECURONIUM]	> 30	> 30	> 30	> 30	> 30	10.4	> 30	–	> 30	> 30	> 30	> 30
